Experimental data from ChEMBL document CHEMBL1201862, “PubChem BioAssay data set” (2004).
Where “and” joins values, the source holds several entries; their conditions need not be identical. Identical values can stand only once. Calls of active or inactive are those of the source.

Experiments:
Cytochrome P450 1A2 = target: T1, Cytochrome P450 1A2 (Homo sapiens, UniProt P05177);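 note: PubChem cytochrome P450 panel assay, CYP1A2 panel member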
T1 sequence (P05177 whole entry): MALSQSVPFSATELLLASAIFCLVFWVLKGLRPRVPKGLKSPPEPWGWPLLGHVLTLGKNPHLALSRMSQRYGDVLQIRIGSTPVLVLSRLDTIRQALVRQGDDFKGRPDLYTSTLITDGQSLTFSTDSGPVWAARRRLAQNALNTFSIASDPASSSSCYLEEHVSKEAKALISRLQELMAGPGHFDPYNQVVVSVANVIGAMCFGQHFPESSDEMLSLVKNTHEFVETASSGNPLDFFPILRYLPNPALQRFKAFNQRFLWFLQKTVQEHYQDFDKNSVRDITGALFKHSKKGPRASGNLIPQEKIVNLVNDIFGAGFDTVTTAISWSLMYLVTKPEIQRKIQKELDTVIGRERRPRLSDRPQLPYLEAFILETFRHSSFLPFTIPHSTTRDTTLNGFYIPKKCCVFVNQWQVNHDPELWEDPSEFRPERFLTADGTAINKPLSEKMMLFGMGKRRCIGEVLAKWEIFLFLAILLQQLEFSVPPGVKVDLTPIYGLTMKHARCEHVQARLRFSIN

[1] = target: T2, Replicative DNA helicase DnaB (Mycobacterium tuberculosis, UniProt P9WMR3); assay: DnaB intein splicing inhibitors, dose response, biochemical, cell-free fluorescence (AID 449749); type: functional
T2 sequence (P9WMR3 whole entry): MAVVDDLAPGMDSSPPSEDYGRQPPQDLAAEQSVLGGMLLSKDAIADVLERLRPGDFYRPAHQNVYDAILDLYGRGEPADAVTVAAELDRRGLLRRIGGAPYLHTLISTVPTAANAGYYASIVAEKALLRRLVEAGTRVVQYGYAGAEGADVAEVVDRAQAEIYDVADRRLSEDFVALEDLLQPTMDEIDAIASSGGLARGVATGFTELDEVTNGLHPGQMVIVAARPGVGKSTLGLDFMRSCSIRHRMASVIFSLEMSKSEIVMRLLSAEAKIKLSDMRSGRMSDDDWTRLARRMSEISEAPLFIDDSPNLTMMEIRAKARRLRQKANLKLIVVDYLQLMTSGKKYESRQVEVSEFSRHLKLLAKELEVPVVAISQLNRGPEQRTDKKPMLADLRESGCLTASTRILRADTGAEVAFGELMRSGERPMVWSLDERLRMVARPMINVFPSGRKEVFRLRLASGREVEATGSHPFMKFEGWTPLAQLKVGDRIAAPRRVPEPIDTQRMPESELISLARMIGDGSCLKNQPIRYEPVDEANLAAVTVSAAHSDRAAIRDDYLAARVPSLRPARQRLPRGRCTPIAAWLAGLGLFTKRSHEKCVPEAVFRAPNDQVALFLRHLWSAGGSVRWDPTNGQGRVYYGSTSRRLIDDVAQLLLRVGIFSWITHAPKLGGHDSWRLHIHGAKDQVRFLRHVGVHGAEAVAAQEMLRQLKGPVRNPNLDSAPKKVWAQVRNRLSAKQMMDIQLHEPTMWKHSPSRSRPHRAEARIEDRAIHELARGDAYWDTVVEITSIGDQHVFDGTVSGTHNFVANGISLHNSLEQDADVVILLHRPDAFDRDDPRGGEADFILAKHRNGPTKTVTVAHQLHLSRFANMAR

Protein RecA = target: T3, Protein RecA (Mycobacterium tuberculosis, UniProt P9WHJ3); assay: Fluorescence Cell-Free Homogeneous Dose Retest to Identify Inhibitors of RecA-Intein Splicing Activity. [Related pubchem assays (depositor defined):AID2097, AID2223, AID489010, AID492950]; type: functional
T3 sequence (P9WHJ3 whole entry): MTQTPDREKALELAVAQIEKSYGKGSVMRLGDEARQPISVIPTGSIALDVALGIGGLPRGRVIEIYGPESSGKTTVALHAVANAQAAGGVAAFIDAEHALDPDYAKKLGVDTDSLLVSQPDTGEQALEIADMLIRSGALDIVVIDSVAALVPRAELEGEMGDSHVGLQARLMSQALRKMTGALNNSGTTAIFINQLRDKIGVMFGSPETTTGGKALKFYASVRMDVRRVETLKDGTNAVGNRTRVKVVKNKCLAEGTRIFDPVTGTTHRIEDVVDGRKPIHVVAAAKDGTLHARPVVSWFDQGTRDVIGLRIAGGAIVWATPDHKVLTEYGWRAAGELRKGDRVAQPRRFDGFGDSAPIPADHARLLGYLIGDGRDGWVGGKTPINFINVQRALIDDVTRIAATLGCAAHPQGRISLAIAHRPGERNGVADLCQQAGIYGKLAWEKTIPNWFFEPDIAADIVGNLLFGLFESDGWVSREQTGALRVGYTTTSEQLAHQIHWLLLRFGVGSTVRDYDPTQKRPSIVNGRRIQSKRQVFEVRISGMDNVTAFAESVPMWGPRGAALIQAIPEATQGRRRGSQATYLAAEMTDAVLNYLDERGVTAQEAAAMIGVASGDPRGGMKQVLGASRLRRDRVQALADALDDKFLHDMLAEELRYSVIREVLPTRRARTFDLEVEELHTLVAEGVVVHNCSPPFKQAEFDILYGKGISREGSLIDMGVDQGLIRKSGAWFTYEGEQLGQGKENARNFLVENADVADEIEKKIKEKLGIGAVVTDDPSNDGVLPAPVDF

Cytochrome P450 2C19 = Cytochrome P450 2C19 (Homo sapiens, UniProt P33261); assay: Cytochrome panel assay with activity outcomes. Panel member name: p450-cyp2c19 Compounds with AC50 equal or less than 10 uM are considered active; type: functional
Cytochrome P450 3A4 = Cytochrome P450 3A4 (Homo sapiens, UniProt P08684);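 note: CYP3A4 tested as one member of a cytochrome P450 panel screen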
[2] = Luminescence Cell-Based Dose Retest to Confirm Inhibitors of Cancer Stem Cells. [Related pubchem assays (depositor defined):AID2717, AID2721]; type: functional; conditions: Homo sapiens
[3] = test system: Streptococcus sp. 'group A'; assay: growth inhibition of control SK(-) GAS strain, dose response, counter-screen for streptokinase expression inhibitor project, luminescence, kanamycin, BacTiterGlo, confirmation (AID 1900); type: functional, organism-based
Streptococcus = assay: Group A Streptococcus viability loss, dose response, counter-screen for streptokinase expression inhibitor project, luminescence, BacTiterGlo (AID 1915); type: functional, organism-based;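 note: potency for reduction of bacterial viability or growth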

Cytochrome P450 3A4, sequence (P08684 whole entry): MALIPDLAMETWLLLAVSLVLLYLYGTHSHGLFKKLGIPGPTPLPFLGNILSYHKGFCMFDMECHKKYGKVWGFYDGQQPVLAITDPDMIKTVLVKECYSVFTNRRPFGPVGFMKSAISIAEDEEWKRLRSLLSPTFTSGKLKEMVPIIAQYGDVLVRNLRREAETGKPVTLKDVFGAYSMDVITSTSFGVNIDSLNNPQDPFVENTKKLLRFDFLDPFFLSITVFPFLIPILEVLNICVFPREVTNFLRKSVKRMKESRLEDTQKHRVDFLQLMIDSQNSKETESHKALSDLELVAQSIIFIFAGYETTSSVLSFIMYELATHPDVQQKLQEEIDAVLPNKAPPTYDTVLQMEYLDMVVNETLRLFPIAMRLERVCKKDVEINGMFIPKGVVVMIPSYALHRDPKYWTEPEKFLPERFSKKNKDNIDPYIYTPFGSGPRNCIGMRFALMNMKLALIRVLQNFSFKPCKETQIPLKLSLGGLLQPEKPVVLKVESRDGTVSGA
Cytochrome P450 2C19, sequence (P33261 whole entry): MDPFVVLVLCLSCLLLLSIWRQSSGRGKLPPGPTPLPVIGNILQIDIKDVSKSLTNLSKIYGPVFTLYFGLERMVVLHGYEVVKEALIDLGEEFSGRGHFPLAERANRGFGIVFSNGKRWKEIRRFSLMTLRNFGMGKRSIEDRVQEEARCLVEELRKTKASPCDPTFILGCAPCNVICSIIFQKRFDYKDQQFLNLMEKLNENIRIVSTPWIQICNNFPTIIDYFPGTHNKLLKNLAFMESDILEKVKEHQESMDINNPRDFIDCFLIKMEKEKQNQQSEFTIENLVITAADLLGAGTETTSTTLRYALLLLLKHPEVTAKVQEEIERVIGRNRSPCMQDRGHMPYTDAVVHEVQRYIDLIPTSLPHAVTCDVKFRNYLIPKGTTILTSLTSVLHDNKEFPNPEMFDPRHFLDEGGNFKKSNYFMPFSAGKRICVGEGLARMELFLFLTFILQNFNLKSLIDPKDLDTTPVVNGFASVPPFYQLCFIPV

With C[C@@H](C(=O)Nc1ccc2ccccc2c1)[C@@H]1C[C@@]1(C)[C@@H](NC(=O)c1cnccn1)c1ccccc1 the AC50 (Cytochrome P450 1A2) was 12.6 µM (inconclusive).

In the case of CCOc1ccc(-c2[nH]nc3c2C(c2ccc(O)cc2)C(C#N)=C(N)O3)cc1 (centres undefined), the AC50 [1] is reported as 4.62 µM (active) and the EC50 (Protein RecA) is reported as 1.75 µM (active).

With Nc1ccccc1S(=O)(=O)NC1=NCCCCC1 the AC50 [1] was > 380 µM (inactive) and the EC50 (Protein RecA) was > 380 µM (inactive).

With COc1ccc(Oc2ncc3ncc(=O)n(C)c3n2)cc1 the AC50 (Cytochrome P450 2C19; read-out: AC50) was 31.6 µM (inconclusive) and the AC50 (Cytochrome P450 3A4) was 25.1 µM (inconclusive).

In the case of COc1ccc(-n2c(=O)c(C)nc3cnc(N4CCOCC4)nc32)cc1, the AC50 (Cytochrome P450 3A4) is reported as 31.6 µM (inconclusive).

For OC[C@@H]1O[C@@H](n2cnc3c(NC4CCCCC4)ncnc32)[C@@H](O)[C@H]1O, the AC50 (Cytochrome P450 2C19; read-out: AC50) was 0.0251 µM (inconclusive).

With COc1cccc(Nc2ncc3nc(-c4ccc(Cl)cc4)c(=O)n(CCC#N)c3n2)c1 the AC50 (Cytochrome P450 1A2) was 5.01 µM (inconclusive) and the AC50 (Cytochrome P450 3A4) was 2 µM (inconclusive).

For CC1=NNC(=O)C1Oc1ccccc1 (centres undefined), the AC50 [1] was 0.737 µM (active) and the EC50 (Protein RecA) was 0.57 µM (active).

For O=c1cc(N2CCC(Cc3ccccc3)CC2)[nH]c(=O)n1C1CCCCC1, the AC50 (Cytochrome P450 3A4) was 3.55 µM (inconclusive).

In the case of Cc1noc(C)c1C(=O)N1CCC2(CCCN(c3ccccn3)C2)CC1, the AC50 (Cytochrome P450 3A4) is reported as 20 µM (inconclusive).

In the case of Cc1c(C)n(CCc2ccccc2)c2ncnc(NCCCN(C)C)c12, the AC50 [2] is reported as 3.51 µM (active).

With O=C1[C@H]2O[C@@H]2[C@@H](O)[C@H]2[C@H]1CCn1c(=O)n(Cc3cc4c(cc3Cl)OCO4)c(=O)n12 the AC50 (Cytochrome P450 3A4) was 3.16 µM (inconclusive).

With N#Cc1ncc(-c2ccc3c(c2)OCCOCCOCCOCCO3)nc1C#N the EC50 (Protein RecA) was 8.97 µM (active).

With Cc1ccc(C(=O)CSC2=C(C#N)C(c3ccco3)C3=C(O)CC(C)(C)CC3=N2)cc1 (centres undefined) the AC50 [2] was 2.49 µM (active).

With COc1ccc(CC(=O)O/N=C(\N)Cc2ccc(OC)cc2)cc1 the AC50 (Cytochrome P450 2C19; read-out: AC50) was 14.1 µM (inconclusive).

In the case of O=c1c(-c2ccc(Cl)cc2)nc2cncnc2n1Cc1ccccc1, the AC50 (Cytochrome P450 2C19; read-out: AC50) is reported as 25.1 µM (inconclusive) and the AC50 (Cytochrome P450 3A4) is reported as 10 µM (inconclusive).

For COCCNc1nc(-c2cccc(NS(C)(=O)=O)c2)nc2ccccc12, the AC50 (Cytochrome P450 2C19; read-out: AC50) was 39.8 µM (inconclusive).

In the case of O=C(C1CC(=O)N(C2CCCC2)C1)N1CCC2(CC1)OCCO2 (centres undefined), the AC50 (Cytochrome P450 2C19; read-out: AC50) is reported as 39.8 µM (inconclusive).

In the case of COC(=O)C/C=C\[C@@H](C)[C@@H](/C=N\O[C@@H](C)c1cn([C@H]2COC[C@H]2O)nn1)OC, the AC50 (Cytochrome P450 2C19) is reported as “inconclusive”.

In the case of SC1=NCCC12C(S)=Nc1ccccc12 (centres undefined), the AC50 [1] is reported as > 380 µM (inactive) and the EC50 (Protein RecA) is reported as > 380 µM (inactive).

In the case of C/C(CC(=O)Nc1ccccn1)=N\NC(=O)c1ccc(C)cc1, the AC50 [1] is reported as 20.4 µM (active) and the EC50 (Protein RecA) is reported as 8.84 µM (active).

With CCCc1nc2ccccc2c(=O)n1/N=C/c1c(C)nn(-c2ccc(C)cc2)c1O the EC50 [3] was 2.87 µM (active) and the EC50 (Streptococcus) was 9.16 µM (active).

With O=C(Cc1cc(O)n[nH]1)N/N=C/c1cccc(Cl)c1Cl the AC50 [1] was 4.36 µM (active) and 2.36 µM (active) and the EC50 (Protein RecA) was 1.51 µM (active) and 1.71 µM (active).

With Cn1c(-c2ccc3c(c2)OCO3)cc(=O)c2ccccc21 [GRAVEOLINE] the AC50 (Cytochrome P450 2C19; read-out: AC50) was 2 µM (inconclusive).
